The source of these data is patent publication US4786755A, “Diphenic acid monoamides” (Warner-Lambert Company, priority 1986, dated 1988).

The target of the experiment is T1, 5-lipoxygenase (Homo sapiens, UniProt P09917).
T1 construct: endogenous in cells; host or cells: leukocytes isolated from fresh human blood
T1 sequence (P09917 1-674): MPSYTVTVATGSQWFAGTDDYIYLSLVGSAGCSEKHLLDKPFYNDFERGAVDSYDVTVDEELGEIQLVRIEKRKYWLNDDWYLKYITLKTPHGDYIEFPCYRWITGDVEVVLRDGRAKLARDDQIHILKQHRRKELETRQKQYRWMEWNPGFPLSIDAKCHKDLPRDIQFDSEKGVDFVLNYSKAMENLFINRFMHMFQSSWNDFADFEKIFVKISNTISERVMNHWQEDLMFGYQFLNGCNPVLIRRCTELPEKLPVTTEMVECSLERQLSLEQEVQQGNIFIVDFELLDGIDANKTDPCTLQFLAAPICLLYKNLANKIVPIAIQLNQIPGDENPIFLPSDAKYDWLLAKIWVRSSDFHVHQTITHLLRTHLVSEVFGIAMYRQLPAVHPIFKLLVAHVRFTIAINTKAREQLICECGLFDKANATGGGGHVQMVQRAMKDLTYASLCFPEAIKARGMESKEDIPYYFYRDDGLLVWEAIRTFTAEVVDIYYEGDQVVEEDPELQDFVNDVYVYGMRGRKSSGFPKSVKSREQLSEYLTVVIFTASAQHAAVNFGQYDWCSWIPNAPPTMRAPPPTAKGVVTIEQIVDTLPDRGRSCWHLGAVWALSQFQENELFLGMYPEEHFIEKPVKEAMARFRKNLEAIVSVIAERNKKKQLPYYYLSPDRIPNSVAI
Briefly: 5-Lipoxygenase Assay Using Isolated Human Leukocytes (5LOA2). The experiment is classed as cell-based. The conditions noted are these: 20 μM exogenous arachidonic acid; read-out: IC50 5LOA (20)*. As for the experimental part: 5-Lipoxygenase Assay Using Isolated Human Leukocytes (5LOA2)
The formation of 5-HETE in human leukocytes is considered a measure of 5-lipoxygenase activity. The protocol is described in the following.
Fresh heparinized or EDTA treated human blood is mixed with 6% dextran-3% dextrose in isotonic saline in the ratio 0.25 ml dextran solution per 1.0 ml blood. After mixing the blood is allowed to sit at room temperature for about 90 minutes while the RBC's settle. During this period, the plasma is removed with a plastic pipette to nalgens tubes.
The plasma is centrifuged at 800 rpm ([…]) on the Beckman Td-b refrigerated centrifuge to remove the platelets (which remain in the supernatant). The pellet, consisting of leukocytes and erythrocytes, is treated with 10 ml 0.87% ammonium chloride at room temperature for four minutes, lysing the red cells. At the end of four minutes the cells are diluted with a 2× volume of phosphate buffered saline, pH 7.4, and centrifuged for ten minutes. The cells are washed three times with the phosphate buffered saline. Any of the pelleted cell matter which is not easily resuspended is discarded during the washings--the material contains platelets (12-lipoxygenase activity).
After washing, the cells are resuspended in phosphate buffered saline containing 1.0 mM calcium and 0.5 mM magnesium. After counting the cells are diluted to 1.5-2.0×10^7 leukocytes per milliliter.
To each polypropylene reaction tube is added 0.48 ml leukocytes in Ca-Mg phosphate buffered saline, pH 7.4; 1-5 μl test compound dissolved in DMSO and buffer; or DMSO for control tubes.
The tubes preincubate at 37° C. for five minutes.
The reaction is started by adding 20 μl of the following, 0.5 μl 20 mM arachidonic acid--final concentration=20 μm; 1 μl 5 mM calcium ionophore A23187--final concentration=10 μm; and 18.5 μl buffer.
The reaction proceeds for five minutes, then is stopped by adding 0.5 ml 0.5 mM ice cold Tris buffer, pH 8.0. The tubes are chilled on ice for ten minutes and then extracted three times with a total of 3.5 ml ethyl acetate (3.0 ml removed).
The tubes can be stored at this point. For extended storage, the tubes should be filled with nitrogen.
The ethyl acetate is evaporated with a Sorvall Speed-Vac. The residue is dissolved in ethanol. The tubes can also be stored at this point at -20° C. under nitrogen.
A portion of the ethanol solution is injected into the HPLC system for 5-HETE quantitation.
The HPLC system consists of Hewlett-Packard 1040A UV spectrophotometry system with an HP85 computer. Injections are made automatically with a Waters WISP 710B. The pump is a Spectra Physics SP8700. Peaks are measured with a Hewlett Packard 3390A integrator. An RP C-18 column is used. The solvent system is isocratic; the solvent is 70% methanol and 30% 0.01M sodium acetate, pH 5.7, pumped at 1.0 ml/min. The flow is monitored at 235 nm for 5-HETE quantitation. Using a 15 cm Alltech Nucleosil C-18 5 μM column provides for a sample turnaround time of about 16 minutes.
IC50 is calculated as the amount of test agent that causes 50% inhibition of the formation of 5-HETE relative to the control.
`O=C(O)c1ccccc1-c1ccccc1C(=O)Nc1ccc(CCCc2ccc(Cl)c(Cl)c2)cc1` [Example 1, [1,1'-Biphenyl]-2-carboxylic acid, 2'-[[[4-[3-(3,4-dichlorophenyl)propyl]phenyl]amino]carbonyl]-]: the IC50 turned out to be 6.7 µM.

As for `COc1ccc(CCc2ccc(NC(=O)c3ccccc3-c3ccccc3C(=O)O)cc2)cc1OC` [Example 7, [1,1'-Biphenyl]-2-carboxylic acid, 2'-[[[4-[2-(3,4-dimethoxyphenyl)ethyl]phenyl]amino]carbonyl]-], the IC50 is more than 20 µM.

Consider `O=C(O)c1ccccc1-c1ccccc1C(=O)Nc1ccc(Cc2ccc(Cl)c(Cl)c2)cc1` [Example 9], for which the half-inhibitory concentration (IC50) worked out at 19 µM.

Regarding `O=C(O)c1ccccc1-c1ccccc1C(=O)Nc1ccc(CCCCc2ccc(Cl)c(Cl)c2)cc1` [Example 15, [1,1'-Biphenyl]-2-carboxylic acid, 2'-[[[4-[4-(3,4-dichlorophenyl)butyl]phenyl]amino]carbonyl]-], the IC50 stood at 4.6 µM.

Consider `O=C(O)c1ccccc1-c1ccccc1C(=O)Nc1ccc(CCCc2ccccc2)cc1` [Example 16, [1,1'-Biphenyl]-2-carboxylic acid, 2'-[[[4-(3-phenylpropyl]phenyl]amino]carbonyl]-], for which the IC50 was 22 µM.

As to `O=C(O)c1ccccc1-c1ccccc1C(=O)Nc1ccc(CCCCc2ccccc2)cc1` [Example 19, [1,1'-Biphenyl]-2-carboxylic acid, 2'-[[[4-(4-phenylbutyl)phenyl]amino]carbonyl]-], the IC50 is 7.2 µM.

As a reminder, the IC50 is the midpoint of a concentration-inhibition curve.
